The source of these data is patent publication US10435361B2, “Kinase inhibitors” (Topivert Pharma Limited, priority 2013, dated 2019).

What all share (type): cell-based
The subject of experiment [1] is PBMCs. Put plainly: LPS-induced TNFα/IL-8 release in PBMC cells. The following applies: Homo sapiens, assay (b), read-out: IC50 Values for Inhibition of Cytokine Release PBMCs IL-8. In outline:
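Healthy-donor PBMCs isolated by density gradient were pretreated with compound for 2 h, then stimulated with 1 ng/mL LPS (E. coli 0111:B4) for 24 h at 37° C., 5% CO2. IL-8 and TNFα in supernatants measured by sandwich ELISA.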

Experiment [2] has as its system HT29 cells. Nature of the experiment: IL-1β-induced IL-8 release in HT29 cells. The following applies: Homo sapiens, HT-29, assay (d), read-out: IC50 Values for Inhibition of Cytokine Release HT29 cells IL-8. As for the experimental part: HT29 cells, a human colon adenocarcinoma cell line, are plated in a 96 well plate (24 hr) and pre-treated with compounds at the desired concentration for 2 hours before addition of 5 ng/mL of IL-1β (Abcam) for 24 hours. Supernatants are harvested for IL-8 quantification by Sandwich ELISA (Duo-set, R&D System). The IC50 is determined from the dose response curve.

Experiment [3] concerns PBMCs. Nature of the experiment: IL-2 and IFN gamma release in CD3/CD28 stimulated PBMC cells. Particulars: Homo sapiens, assay (c), read-out: IC50 Values for Inhibition of Cytokine Release PBMCs IFNγ. Put shortly: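 Healthy-donor PBMCs, density-gradient isolated, stimulated on plates pre-coated with anti-CD3 (0.3 μg/mL) and anti-CD28 (3 μg/mL) antibodies, with compound, for 3 days under standard culture conditions. IC50 derived from the dose-response curve.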

pIC50: −log10 of the molar value.

For `COCCOCCOCCOc1cc(Nc2nccc(Oc3ccc(NC(=O)Nc4cc(N5CCOCC5)ccc4OC)c4ccccc34)n2)cc(OC)c1` [Example 12, 1-(4-((2-((3-Methoxy-5-(2-(2-(2-methoxyethoxy)ethoxy)ethoxy)phenyl)amino)-pyrimidin-4-yl)oxy)naphthalen-1-yl)-3-(2-methoxy-5-morpholinophenyl)urea], the pIC50 (commonly the IC50 on a negative log10 scale, so that one unit is a factor of ten) in experiment [1] was 6.97; in experiment [2], 5.88.
Take `COCCOCCOCCOc1cc(Nc2nccc(Oc3ccc(NC(=O)Nc4cc(C(C)(C)C)cc(-c5cnn[nH]5)c4OC)c4ccccc34)n2)cc(OC)c1` [Example 70, 1-(5-(tert-Butyl)-2-methoxy-3-(1H-1,2,3-triazol-5-yl)phenyl)-3-(4-((2-((3-methoxy-5-(2-(2-(2-methoxyethoxy)ethoxy)ethoxy)phenyl)amino)pyrimidin-4-yl)oxy)naphthalen-1-yl)urea]: the pIC50 in experiment [1] is 8.31; in experiment [3] it was 8.13; in experiment [2], 8.39.
Consider `COCCOCCOCCOc1cc(Nc2nccc(Oc3ccc(NC(=O)Nc4cc(C(C)(C)C)cc(NS(=O)(=O)C(F)(F)F)c4OC)c4ccccc34)n2)cc(OC)c1` [Example 71, N-(5-(tert-Butyl)-2-methoxy-3-(3-(4-((2-((3-methoxy-5-(2-(2-(2-methoxyethoxy)ethoxy)-ethoxy)phenyl)amino)pyrimidin-4-yl)oxy)naphthalen-1-yl)ureido)phenyl)-1,1,1-trifluoro-methanesulfonamide], for which the pIC50 in experiment [1] was 6.94; in experiment [2] it was 5.94.
`COCCOCCOCCOc1cc(Nc2nccc(Oc3ccc(NC(=O)Nc4cc(C(C)(C)C)cc(NS(=O)(=O)C5CCCCC5)c4OC)c4ccccc34)n2)cc(OC)c1` [Example 72, N-(5-(tert-Butyl)-2-methoxy-3-(3-(4-((2-((3-methoxy-5-(2-(2-(2-methoxyethoxy)ethoxy)-ethoxy)phenyl)amino)pyrimidin-4-yl)oxy)naphthalen-1-yl)ureido)phenyl)cyclohexane-sulfonamide]: the figures for the negative-log IC50 (pIC50) in experiment [1] and in experiment [2] were 7.93 and 7.72, respectively.
In the case of `COCCOCCOCCOc1cc(Nc2nccc(Oc3ccc(NC(=O)Nc4cc(C(C)(C)C)cc(NS(=O)(=O)N5CCCCC5)c4OC)c4ccccc34)n2)cc(OC)c1` [Example 73, N-(5-(tert-Butyl)-2-methoxy-3-(3-(4-((2-((3-methoxy-5-(2-(2-(2-methoxyethoxy)ethoxy)-ethoxy)phenyl)amino)pyrimidin-4-yl)oxy)naphthalen-1-yl)ureido)phenyl)piperidine-1-sulfonamide], the results for the pIC50 in experiment [1] and in experiment [2] were 7.72 and 7.50, respectively.
On to `COCCOCCOCCOc1cc(Nc2nccc(Oc3ccc(NC(=O)Nc4cc(C(C)(C)C)cc(NS(=O)(=O)N(C)C)c4OC)c4ccccc34)n2)cc(OC)c1` [Example 74, N-(5-(tert-Butyl)-2-methoxy-3-(3-(4-((2-((3-methoxy-5-(2-(2-(2-methoxyethoxy)ethoxy)-ethoxy)phenyl)amino)pyrimidin-4-yl)oxy)naphthalen-1-yl)ureido)phenyl)dimethylamino-sulfonamide], for which the pIC50 is 8.18 in experiment [1] and 7.93 in experiment [2].
